Data on 25 compounds can be found in ChEMBL document CHEMBL4177638, “Challenges in the development of an M4 PAM preclinical candidate: The discovery, SAR, and biological characterization of a series of azetidine-derived tertiary amides” (Bioorg Med Chem Lett, 2017).

The source made the active and inactive calls. No cut-off for these calls is given here. A value given as a limit tells only on which side of the number the result lay.

Data set [1] has as its target T1, Muscarinic acetylcholine receptor M4 (Homo sapiens) (UniProt P08173).
T1 sequence (whole entry): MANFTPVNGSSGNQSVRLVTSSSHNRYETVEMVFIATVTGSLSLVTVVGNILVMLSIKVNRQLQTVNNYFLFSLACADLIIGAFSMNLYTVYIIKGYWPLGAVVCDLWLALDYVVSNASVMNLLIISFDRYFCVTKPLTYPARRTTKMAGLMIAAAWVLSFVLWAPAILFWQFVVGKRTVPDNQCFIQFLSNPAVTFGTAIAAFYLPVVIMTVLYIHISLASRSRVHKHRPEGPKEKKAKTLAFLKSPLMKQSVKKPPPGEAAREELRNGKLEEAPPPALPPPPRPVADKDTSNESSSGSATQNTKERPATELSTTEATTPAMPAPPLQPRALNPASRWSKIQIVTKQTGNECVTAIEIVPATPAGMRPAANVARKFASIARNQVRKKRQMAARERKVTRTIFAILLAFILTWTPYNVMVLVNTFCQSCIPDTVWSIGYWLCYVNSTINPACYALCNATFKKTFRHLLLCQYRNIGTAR
The data set can be described thus: Positive allosteric modulation of human M4 receptor expressed in CHO cells co-expressing Gqi5 assessed as increase in acetylcholine-induced calcium mobilization relative to acetylcholine. It is filed as functional, cell-based.

Data set [2] addresses T2, Muscarinic acetylcholine receptor M4 (Homo sapiens, UniProt P08173).
T2 sequence (P08173 whole entry): T1 sequence (whole entry)
Description: Positive allosteric modulation of human M4 receptor expressed in CHO cells co-expressing Gqi5 assessed as increase in acetylcholine-induced calcium mobilization. It counts as functional, cell-based. A general note: Calcium assays in cells follow changes in intracellular calcium, usually with a dye or a luminescent sensor.

The nature of data set [3]: Brain to plasma partition coefficient, Kp of the compound in rat. It is filed as ADME, cell-free.
Data set [4] is described as follows: Ratio of unbound brain to plasma concentration in rat. It counts as ADME, cell-free.
Data set [5] deals with T3, Muscarinic acetylcholine receptor M2 (Homo sapiens) (UniProt P08172).
T3 sequence (whole entry): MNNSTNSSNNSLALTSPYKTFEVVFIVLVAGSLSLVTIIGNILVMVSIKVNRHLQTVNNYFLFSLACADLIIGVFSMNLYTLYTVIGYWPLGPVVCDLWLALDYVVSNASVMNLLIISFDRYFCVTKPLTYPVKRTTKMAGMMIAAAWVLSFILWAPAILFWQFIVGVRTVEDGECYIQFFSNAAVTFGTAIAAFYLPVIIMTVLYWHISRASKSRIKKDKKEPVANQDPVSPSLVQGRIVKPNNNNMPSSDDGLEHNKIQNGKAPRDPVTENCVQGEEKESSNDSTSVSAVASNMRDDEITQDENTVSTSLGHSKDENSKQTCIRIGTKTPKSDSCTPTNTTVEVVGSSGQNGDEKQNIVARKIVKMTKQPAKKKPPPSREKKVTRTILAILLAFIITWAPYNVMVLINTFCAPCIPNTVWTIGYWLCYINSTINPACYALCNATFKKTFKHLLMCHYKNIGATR
The data set can be described thus: (§1) Positive allosteric modulation of human M2 receptor assessed as increase in acetylcholine-induced response. It is filed as functional.

Data set [6] deals with T4, Muscarinic acetylcholine receptor M1 (Homo sapiens, UniProt P11229).
T4 sequence (P11229 whole entry): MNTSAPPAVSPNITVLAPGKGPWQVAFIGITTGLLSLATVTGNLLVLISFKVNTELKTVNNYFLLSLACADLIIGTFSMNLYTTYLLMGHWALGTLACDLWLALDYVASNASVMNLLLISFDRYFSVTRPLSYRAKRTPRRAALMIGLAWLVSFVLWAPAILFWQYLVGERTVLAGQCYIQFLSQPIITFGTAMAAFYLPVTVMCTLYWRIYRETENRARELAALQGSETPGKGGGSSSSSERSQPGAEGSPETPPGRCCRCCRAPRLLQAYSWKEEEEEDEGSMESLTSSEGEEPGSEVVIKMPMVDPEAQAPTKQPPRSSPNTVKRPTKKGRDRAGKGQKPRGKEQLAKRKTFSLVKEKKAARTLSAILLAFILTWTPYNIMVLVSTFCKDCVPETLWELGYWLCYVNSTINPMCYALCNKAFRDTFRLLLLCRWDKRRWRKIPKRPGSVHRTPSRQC
Description: Positive allosteric modulation of human M1 receptor assessed as increase in acetylcholine-induced response. It counts as functional.

Data set [7] can be described thus: Ratio of EC50 for rat M4 receptor to EC50 for human M4 receptor expressed in CHO cells co-expressing Gqi5. It is filed as cell-based.
For data set [8], the target named is T5, Muscarinic acetylcholine receptor M5 (Homo sapiens, UniProt P08912).
T5 sequence (P08912 whole entry): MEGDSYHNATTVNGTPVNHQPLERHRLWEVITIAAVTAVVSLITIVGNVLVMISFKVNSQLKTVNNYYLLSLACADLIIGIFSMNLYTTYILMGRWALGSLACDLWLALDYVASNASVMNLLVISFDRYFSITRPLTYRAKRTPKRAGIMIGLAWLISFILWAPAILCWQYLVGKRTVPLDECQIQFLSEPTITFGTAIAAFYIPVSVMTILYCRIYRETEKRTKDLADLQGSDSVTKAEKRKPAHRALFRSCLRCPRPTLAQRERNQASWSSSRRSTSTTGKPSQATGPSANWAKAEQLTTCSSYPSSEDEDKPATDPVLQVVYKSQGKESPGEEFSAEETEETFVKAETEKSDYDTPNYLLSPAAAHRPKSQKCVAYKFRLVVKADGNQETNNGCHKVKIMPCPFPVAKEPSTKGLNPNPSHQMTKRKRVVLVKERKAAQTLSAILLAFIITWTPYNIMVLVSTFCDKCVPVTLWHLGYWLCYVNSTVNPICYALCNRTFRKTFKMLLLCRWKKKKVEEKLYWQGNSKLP
The data set can be described thus: Positive allosteric modulation of human M5 receptor assessed as increase in acetylcholine-induced response. It counts as functional.

In the next data set the test system is Rattus norvegicus. The data set can be described thus: Antipsychotic activity in rat assessed as reversal of amphetamine-induced hyperlocomotion at 30 mg/kg, po. It counts as functional.
For data set [9], the target named is T6, Muscarinic acetylcholine receptor M2 (Homo sapiens, UniProt P08172).
T6 sequence (P08172 whole entry): T3 sequence (whole entry)
Described as §1. It is filed as functional.

Data set [10] deals with Muscarinic acetylcholine receptor M3 (Homo sapiens, UniProt P20309). The data set can be described thus: Positive allosteric modulation of human M3 receptor assessed as increase in acetylcholine-induced response. It counts as functional.
The nature of data set [11]: Ratio of unbound brain to plasma concentration in Sprague-Dawley rat at 0.1 to 0.2 mg/kg, iv measured after 0.25 hrs. It is filed as ADME, organism-based. The settings on record: read-out: K(p,uu,brain).
Data set [12] is described as follows: Elimination half life in Sprague-Dawley rat at 0.1 to 1 mg/kg, iv. It counts as ADME, organism-based. The settings on record: in vivo, read-out: beta t1/2 (converted).
The nature of data set [13]: Clearance in Sprague-Dawley rat plasma at 0.1 to 1 mg/kg, iv. It counts as ADME, organism-based.
Data set [14] is described as follows: Aqueous solubility of the compound at pH 7.4. It counts as physicochemical. Conditions: aqueous medium.
Data set [15] can be described thus: Brain to plasma partition coefficient, Kp of the compound in Sprague-Dawley rat at 0.1 to 0.2 mg/kg, iv measured after 0.25 hrs. It counts as ADME, organism-based.
Data set [16] addresses T3, Muscarinic acetylcholine receptor M2 (Homo sapiens). The data set can be described thus: Positive allosteric modulation of human M2 receptor assessed as increase in acetylcholine-induced response relative to acetylcholine. It counts as functional.
A short description of data set [17]: Oral bioavailability in dog at 10 mg/kg. Conditions: in vivo. It counts as ADME, organism-based, Canis lupus familiaris.

Sequence of Muscarinic acetylcholine receptor M3 (P20309 whole entry): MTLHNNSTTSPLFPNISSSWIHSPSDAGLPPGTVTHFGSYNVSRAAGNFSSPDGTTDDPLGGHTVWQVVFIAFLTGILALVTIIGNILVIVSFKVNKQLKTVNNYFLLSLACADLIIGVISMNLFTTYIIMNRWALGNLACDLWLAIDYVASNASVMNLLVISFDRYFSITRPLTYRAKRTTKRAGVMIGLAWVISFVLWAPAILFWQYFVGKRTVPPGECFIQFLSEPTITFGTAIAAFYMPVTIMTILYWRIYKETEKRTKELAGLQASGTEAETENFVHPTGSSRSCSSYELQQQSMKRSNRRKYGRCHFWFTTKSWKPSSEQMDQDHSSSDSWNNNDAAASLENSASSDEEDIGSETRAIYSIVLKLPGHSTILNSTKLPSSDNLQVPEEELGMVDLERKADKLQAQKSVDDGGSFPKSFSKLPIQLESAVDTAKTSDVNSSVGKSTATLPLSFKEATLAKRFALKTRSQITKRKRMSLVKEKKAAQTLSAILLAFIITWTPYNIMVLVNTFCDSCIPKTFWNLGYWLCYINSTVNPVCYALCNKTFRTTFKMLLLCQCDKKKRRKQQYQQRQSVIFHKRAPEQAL

Regarding `Cc1nnc2sc(C(=O)N3CC4(CCN(c5cccnc5)C4)C3)c(N)c2c1C`, the %max in [1] fell in the range of 53 to 57%.
Turning to `Cc1nnc2sc(C(=O)N3CC(c4ccccc4)C3C)c(N)c2c1C` (stereo not given), the %max in [1] worked out at 45%. Moreover, in data set [2], the EC50 is 1.51 µM.
`Cc1nnc2sc(C(=O)N3CC(c4ccc(F)cc4)C3)c(N)c2c1C`: in data set [1], the %max was determined as 80%. Further, in data set [3], the Kp turned out to be 2.3. In addition, in [4], the “K(p,uu,brain)” value worked out at 1.3. In addition, the EC50 in [2] came to 0.151 µM. Besides, the outcome in [5] was inactive.
`Cc1nnc2sc(C(=O)N3CC(C)(F)C3)c(N)c2c1C`: in data set [1], the %max is 98%. The EC50 in [2] was 0.363 µM.
For `Cc1cccc(C2CN(C(=O)c3sc4nnc(C)c(C)c4c3N)C2)c1`, the %max in data set [1] is 83%. For the same compound, the EC50 in data set [2] worked out at 0.851 µM.
For `Cc1nnc2sc(C(=O)N3CC(C4CCCCC4)C3)c(N)c2c1C`, the %max in [1] worked out at 54%. Also, the Kp in data set [3] came out at 8.46. In addition, the “K(p,uu,brain)” value in data set [4] is listed as 0.71. Further, in data set [2], the EC50 is 0.178 µM.
Regarding `Cc1ccc(C2CN(C(=O)c3sc4nnc(C)c(C)c4c3N)C2)cc1`, in [1], the %max turned out to be 82%. In data set [2], the EC50 was 1.1 µM.
The like results for `CCCCC1(F)CN(C(=O)c2sc3nnc(C)c(C)c3c2N)C1` were, in that order, 85% and 0.316 µM.
On to `Cc1nnc2sc(C(=O)N3CC(c4ccc(Cl)cc4)C3)c(N)c2c1C`, for which, in data set [2], the EC50 is above 10 µM.
On to `Cc1nnc2sc(C(=O)N3CC(c4ccccc4)C3)c(N)c2c1C`, for which the %max in data set [1] amounted to 65%. For the same compound, the EC50 in data set [6] is above 10 µM; in [2], 0.072 µM; in [8] it was above 10 µM; in [9], above 10 µM; in data set [10] it was above 10 µM. The compound also had a Kp in data set [3] of 2.6. In data set [4], the “K(p,uu,brain)” value amounted to 2.1. Also, in [7], the Ratio EC50 was 2. For the same compound, the Activity in the data set on Rattus norvegicus is 32%.
Take `Cc1nnc2sc(C(=O)N3CC(c4cccs4)C3)c(N)c2c1C`: the %max in [1] turned out to be 78%. Further, the EC50 in [2] was 0.2 µM.
The like results for `Cc1nnc2sc(C(=O)N3CC(O)(c4ccccc4)C3)c(N)c2c1C` were, in that order, 30% and 1.05 µM.
In the case of `Cc1nnc2sc(C(=O)NCc3ccc(S(=O)(=O)C(F)(F)F)cc3)c(N)c2c1C`, in [11], the Kp uu at 0.25 h was determined as 1.2. Also, the half-life in [12] was 2.7 h. Also, the clearance in data set [13] was determined as 0.096 L/h/kg. In [14], this compound registered a solubility below 0.5 µM. The Kp at 0.25 h in data set [15] was found to be 0.11.
With `Cc1nnc2sc(C(=O)N3CC(F)(c4cccc(F)c4)C3)c(N)c2c1C`, in [1], the %max stood at 67%. Further, the 50% effective concentration (EC50) in data set [2] was found to be 0.447 µM.
As for `Cc1nnc2sc(C(=O)N3CC(c4cccc(F)c4)C3C)c(N)c2c1C` (stereo not given), the %max in data set [1] came to 45%. In addition, the EC50 in data set [2] came to 1.46 µM.
The like results for `COC1(c2cccc(F)c2)CN(C(=O)c2sc3nnc(C)c(C)c3c2N)C1` were, in that order, 36% and 0.417 µM.
For the compound `Cc1nnc2sc(C(=O)N3CC(c4cccc(F)c4)C3)c(N)c2c1C`, the values for the %max in data set [1] and in data set [16] were 83% and 38%, respectively. Also, the Kp in data set [3] worked out at 2.1. In addition, the “K(p,uu,brain)” value in data set [4] worked out at 0.92. The EC50 worked out at 0.057 µM in [2] and 2.1 µM in data set [9].
As for `Cc1nnc2sc(C(=O)N3CC(c4ccc(Br)cc4)C3)c(N)c2c1C`, the 50% effective concentration (EC50) in data set [2] is above 10 µM.
In the case of `COc1cccc(C2CN(C(=O)c3sc4nnc(C)c(C)c4c3N)C2)c1`, the EC50 in [2] is above 10 µM.
Take `Cc1nnc2sc(C(=O)N3CC(c4ccccc4F)C3)c(N)c2c1C`: the %max in data set [1] came to 75%. Further, the EC50 in data set [2] stood at 0.407 µM.
Consider `Cc1nnc2sc(C(=O)N3CC(F)(c4ccccn4)C3)c(N)c2c1C`, for which the %max in data set [1] worked out at 78%. Also, in [2], the EC50 came out at 2.24 µM.
In the same order, the values of `COc1ccccc1C1CN(C(=O)c2sc3nnc(C)c(C)c3c2N)C1` are 54% and 2.29 µM.
For `Cc1nnc2sc(C(=O)NCc3ccc(S(=O)(=O)C(F)(F)F)cc3)c(N)c2c1C.Cl`, the bioavailability in [17] is 4.7%.
For `Cc1ccccc1C1CN(C(=O)c2sc3nnc(C)c(C)c3c2N)C1`, the %max in [1] stood at 72%. The EC50 in [2] was found to be 0.457 µM.
In the same order, the values of `COc1ccc(C2CN(C(=O)c3sc4nnc(C)c(C)c4c3N)C2)cc1` are 94% and 0.331 µM.

For orientation: EC50 means the concentration needed to bring the measured effect to its halfway point. The Kp is the ratio of the level in a tissue or fluid to that in plasma or blood. In general, clearance refers to a measure of how efficiently the substance is removed, as volume per time. High values mean efficient removal, low ones inefficient removal. The term solubility denotes the dissolved amount per volume that the medium holds. High values mean much dissolved substance, low ones little dissolved substance. As usually defined, the bioavailability is the share of a dose that reaches the circulation, judged against a reference dose that is usually intravenous. A low value points to poor availability.
